Source: ChEMBL document CHEMBL5053525, “Synthesis and antiviral effect of phosphamide modified vidarabine for treating HSV 1 infections” (Bioorg Med Chem Lett, 2021)
Active and inactive are the calls of the source. No cut-off for these calls is given here.

Key:
Human alphaherpesvirus 1 [1] = experiment: Antiviral activity against HSV-1 infected in human Huh-7 cells assessed as reduction in plaque forming units at 1 uM measured after 48 hrs by virus titre method; format: functional
Human alphaherpesvirus 1 [2] = experiment: Antiviral activity against HSV-1 infected in human Huh-7 cells assessed as inhibition of viral replication by measuring ICPO level at 10 uM pre-infected with viral particles for 2 hrs followed by compound treatment for 24 hrs by Western blot analysis; format: functional, organism-based
Human alphaherpesvirus 1 [3] = experiment: Antiviral activity against HSV-1 infected in human HepG2 cells assessed as inhibition of viral replication by measuring ICPO level at 10 uM pre-infected with viral particles for 2 hrs followed by compound treatment for 24 hrs by Western blot analysis; format: functional, organism-based
Human alphaherpesvirus 1 [4] = experiment: Antiviral activity against GFP-expressing HSV-1 assessed as reduction in viral growth by fluorescence assay; format: functional, organism-based
Huh-7 = experiment: Cytotoxicity against human Huh-7 cells assessed as effect on cell viability at 10 uM measured by MTT asay; format: cell-based; conditions: huh-7, 10 µM
Human alphaherpesvirus 1 [5] = experiment: Antiviral activity against HSV-1 infected in human Huh-7 cells assessed as inhibition of viral replication by measuring ICPO level; format: functional, organism-based; conditions: dose 0.1-1.6 µM
Human alphaherpesvirus 1 [6] = experiment: Antiviral activity against HSV-1 infected in African green monkey Vero cells assessed as inhibition of viral replication by measuring ICPO level at 10 uM pre-infected with viral particles for 2 hrs followed by compound treatment for 24 hrs by Western blot analysis; format: functional, organism-based
Human alphaherpesvirus 1 [7] = experiment: Antiviral activity against HSV-1 infected in human Huh-7 cells assessed as reduction in plaque forming units at 1 uM measured after 48 hrs by virus titre method relative to NTC; format: functional

| Compound | inhibition (Human alphaherpesvirus 1 [2]) | inhibition (Human alphaherpesvirus 1 [3]) | also measured |
| --- | --- | --- | --- |
| NC(=O)c1ncn([C@@H]2O[C@H](CO)[C@@H](O)[C@H]2O)n1 [RIBAVIRIN] | – | – | Activity (Human alphaherpesvirus 1 [1]): 100 PFU/ml |
| CSCC[C@H](NP(=O)(OC[C@H]1O[C@@H](n2cnc3c(N)ncnc32)[C@@H](O)[C@@H]1O)Oc1ccccc1)C(=O)OC(C)C (stereo partly specified) | Active | Active | – |
| CSCC[C@H](N[P@](=O)(OC[C@H]1O[C@@H](n2cnc3c(N)ncnc32)[C@@H](O)[C@@H]1O)Oc1ccccc1)C(=O)OC(C)C | Active | Active | – |
| CC(C)OC(=O)[C@H](C)N[P@](=O)(OC[C@H]1O[C@@H](n2cnc3c(N)ncnc32)[C@@H](O)[C@@H]1O)Oc1ccccc1 | Active | Active | – |
| CC(C)OC(=O)[C@@H](C)N[P@](=O)(OC[C@H]1O[C@@H](n2cnc3c(N)ncnc32)[C@@H](O)[C@@H]1O)Oc1ccccc1 | Active | Active | – |
| CC(C)OC(=O)CN[P@](=O)(OC[C@H]1O[C@@H](n2cnc3c(N)ncnc32)[C@@H](O)[C@@H]1O)Oc1ccccc1 | Active | Active | – |
| Nc1nc2c(ncn2COC(CO)CO)c(=O)[nH]1 [GANCICLOVIR] | – | – | EC50 (Human alphaherpesvirus 1 [4]): < 0.1 µM |
| CCCCCOC(=O)Nc1ncnc2c1ncn2[C@@H]1O[C@H](CO[P@@](=O)(N[C@@H](C)C(=O)OC(C)C)Oc2ccccc2)[C@@H](O)[C@@H]1O | Active | Active | – |
| CC(C)OC(=O)[C@@H](N[P@](=O)(OC[C@H]1O[C@@H](n2cnc3c(N)ncnc32)[C@@H](O)[C@@H]1O)Oc1ccccc1)C(C)C | Active | Active | – |
| CC(C)OC(=O)[C@H](Cc1c[nH]c2ccccc12)N[P@](=O)(OC[C@H]1O[C@@H](n2cnc3c(N)ncnc32)[C@@H](O)[C@@H]1O)Oc1ccccc1 | Active | Active | – |
| COC(=O)[C@@H](NP(=O)(OC[C@H]1O[C@@H](n2cnc3c(N)ncnc32)[C@@H](O)[C@@H]1O)Oc1ccccc1)C(C)C (stereo partly specified) | Active | Active | – |
| CC(C)C[C@H](N[P@](=O)(OC[C@H]1O[C@@H](n2cnc3c(N)ncnc32)[C@@H](O)[C@@H]1O)Oc1ccccc1)C(=O)OC(C)C | Active | Active | Activity (Huh-7): Non-Toxic; inhibition (Human alphaherpesvirus 1 [5]): Dose-dependent effect; inhibition (Human alphaherpesvirus 1 [6]): inactive; Activity (Human alphaherpesvirus 1 [1]): inactive; EC50 (Human alphaherpesvirus 1 [4]): 0.526 µM; fold change (FC) (Human alphaherpesvirus 1 [7]): 1000 |
| CC(C)OC(=O)[C@@H](NP(=O)(OC[C@H]1O[C@@H](n2cnc3c(N)ncnc32)[C@@H](O)[C@@H]1O)Oc1ccccc1)C(C)C (stereo partly specified) | Active | Active | – |
| COC(=O)[C@H](NP(=O)(OC[C@H]1O[C@@H](n2cnc3c(N)ncnc32)[C@@H](O)[C@@H]1O)Oc1ccccc1)C(C)C (stereo partly specified) | Active | Active | – |
| CC(C)OC(=O)[C@H](C)NP(=O)(OC[C@H]1O[C@@H](n2cnc3c(N)ncnc32)[C@@H](O)[C@@H]1O)Oc1ccccc1 (stereo partly specified) | Active | Active | – |
| CC(C)C[C@H](NP(=O)(OC[C@H]1O[C@@H](n2cnc3c(N)ncnc32)[C@@H](O)[C@@H]1O)Oc1ccccc1)C(=O)OC(C)C (stereo partly specified) | Active | Active | Activity (Huh-7): Non-Toxic; inhibition (Human alphaherpesvirus 1 [5]): Dose-dependent effect; inhibition (Human alphaherpesvirus 1 [6]): inactive; EC50 (Human alphaherpesvirus 1 [4]): 1.18 µM |
| CC(C)OC(=O)[C@H](Cc1ccccc1)N[P@](=O)(OC[C@H]1O[C@@H](n2cnc3c(N)ncnc32)[C@@H](O)[C@@H]1O)Oc1ccccc1 | Active | Active | Activity (Huh-7): Non-Toxic; inhibition (Human alphaherpesvirus 1 [5]): Dose-dependent effect; inhibition (Human alphaherpesvirus 1 [6]): inactive; EC50 (Human alphaherpesvirus 1 [4]): 1.06 µM |
